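Values below derive from 48-hour exposures of cells grown in 96-well plates, with endpoints linearly interpolated between the two concentrations bracketing the appropriate inhibition level. Here, GI50 denotes the concentration required for 50% inhibition of growth.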 Active and inactive are the calls of the source. Cut-off read from the data, not from the text of the source: active = GI50 up to about 1.1 µM and inactive = higher.
Legend:
Test in all cases: NCI-60 cell line screen, 48 h
[1] = system: A549
[2] = system: KM12
[3] = system: SNB-19
[4] = system: HCT-116
[5] = system: SNB-75
[6] = system: IGROV-1
[7] = system: SK-MEL-2
[8] = system: SN12C
[9] = system: OVCAR-8
[10] = system: UACC-257
[11] = system: K562
[12] = system: SF-295
[13] = system: CCRF-CEM
[14] = system: NCI-H460
[15] = system: A498
[16] = system: TK-10
[17] = system: NCI-H23
[18] = system: 786-0
[19] = system: SK-MEL-5
[20] = system: M14
[21] = system: KM-20L2
[22] = system: M19-MEL
[23] = system: LOX IMVI
[24] = system: OVCAR-3
[25] = system: HCC 2998
[26] = system: DLD-1
[27] = system: SW-620
[28] = system: UO-31
[29] = system: HT-29
[30] = system: SF-268
[31] = system: RXF 393
[32] = system: EKVX
[33] = system: SR
[34] = system: DMS-273
[35] = system: U-251
[36] = system: MOLT-4
[37] = system: OVCAR-4
[38] = system: NCI-H522
[39] = system: NCI-H226
[40] = system: HOP-92
[41] = system: ACHN
[42] = system: SK-MEL-28
[43] = system: Malme-3M
[44] = system: UACC-62
[45] = system: SNB-78
[46] = system: HL-60
[47] = system: DMS-114
[48] = system: LXFL 529
[49] = system: HOP-62
[50] = system: XF498
[51] = system: OVCAR-5
[52] = system: CAKI-1
[53] = system: SK-OV-3
[54] = system: HCT-15
[55] = system: COLO 205
[56] = system: SF-539
[57] = system: RPMI-8226
[58] = system: HOP-18

## O/N=C/c1ccc(O)c(O)c1
[1]
  GI50: > 100 µM (inactive)
[2]
  GI50: > 100 µM (inactive)
[3]
  GI50: > 100 µM (inactive)
[4]
  GI50: > 100 µM (inactive)
[5]
  GI50: > 100 µM (inactive)
[6]
  GI50: 65 µM (inactive)
[7]
  GI50: > 100 µM (inactive)
[8]
  GI50: > 100 µM (inactive)
[9]
  GI50: > 100 µM (inactive)
[10]
  GI50: > 100 µM (inactive)
[11]
  GI50: 55.8 µM (inactive)
[12]
  GI50: > 100 µM (inactive)
[13]
  GI50: 7.38 µM (inactive)
[14]
  GI50: 77.4 µM (inactive)
[15]
  GI50: > 100 µM (inactive)
[16]
  GI50: > 100 µM (inactive)
[17]
  GI50: > 100 µM (inactive)
[18]
  GI50: > 100 µM (inactive)
[19]
  GI50: 62.8 µM (inactive)
[20]
  GI50: 97.5 µM (inactive)
[21]
  GI50: > 100 µM (inactive)
[22]
  GI50: > 100 µM (inactive)
[23]
  GI50: 67.8 µM (inactive)
[24]
  GI50: 31.8 µM (inactive)
[25]
  GI50: > 100 µM (inactive)
[26]
  GI50: > 100 µM (inactive)
[27]
  GI50: 15.4 µM (inactive)
[28]
  GI50: 54 µM (inactive)
[29]
  GI50: > 100 µM (inactive)
[30]
  GI50: > 100 µM (inactive)
[31]
  GI50: > 100 µM (inactive)
[32]
  GI50: 75.7 µM (inactive)
[33]
  GI50: 37.2 µM (inactive)
[34]
  GI50: 62.5 µM (inactive)
[35]
  GI50: 61.7 µM (inactive)
[36]
  GI50: 20.5 µM (inactive)
[37]
  GI50: 77.3 µM (inactive)
[38]
  GI50: 15.2 µM (inactive)
[39]
  GI50: > 100 µM (inactive)
[40]
  GI50: > 100 µM (inactive)
[41]
  GI50: 39.9 µM (inactive)
[42]
  GI50: > 100 µM (inactive)
[43]
  GI50: > 100 µM (inactive)
[44]
  GI50: 93.3 µM (inactive)
[45]
  GI50: > 100 µM (inactive)
[46]
  GI50: 12.8 µM (inactive)
[47]
  GI50: 14.7 µM (inactive)
[48]
  GI50: 84.9 µM (inactive)
[49]
  GI50: > 100 µM (inactive)
[50]
  GI50: > 100 µM (inactive)
[51]
  GI50: > 100 µM (inactive)
[52]
  GI50: 67.8 µM (inactive)
[53]
  GI50: > 100 µM (inactive)
[54]
  GI50: 44.1 µM
[55]
  GI50: 55.8 µM (inactive)
[56]
  GI50: > 100 µM (inactive)

## CC1(C)OC[C@H](C(=N)OCc2ccccc2)O1
[1]
  GI50: > 100 µM (inactive)
[2]
  GI50: > 100 µM (inactive)
[3]
  GI50: > 100 µM (inactive)
[4]
  GI50: > 100 µM (inactive)
[5]
  GI50: > 100 µM (inactive)
[6]
  GI50: > 100 µM (inactive)
[7]
  GI50: > 100 µM (inactive)
[8]
  GI50: > 100 µM (inactive)
[9]
  GI50: > 100 µM (inactive)
[10]
  GI50: > 100 µM (inactive)
[11]
  GI50: > 100 µM (inactive)
[12]
  GI50: > 100 µM (inactive)
[13]
  GI50: > 100 µM (inactive)
[14]
  GI50: > 100 µM (inactive)
[15]
  GI50: > 100 µM (inactive)
[16]
  GI50: > 100 µM (inactive)
[17]
  GI50: > 100 µM (inactive)
[19]
  GI50: > 100 µM (inactive)
[20]
  GI50: > 100 µM (inactive)
[21]
  GI50: > 100 µM (inactive)
[22]
  GI50: > 100 µM (inactive)
[24]
  GI50: > 100 µM (inactive)
[25]
  GI50: > 100 µM (inactive)
[26]
  GI50: > 100 µM (inactive)
[27]
  GI50: > 100 µM (inactive)
[28]
  GI50: > 100 µM (inactive)
[29]
  GI50: > 100 µM (inactive)
[30]
  GI50: > 100 µM (inactive)
[57]
  GI50: > 100 µM (inactive)
[31]
  GI50: > 100 µM (inactive)
[32]
  GI50: > 100 µM (inactive)
[33]
  GI50: > 100 µM (inactive)
[34]
  GI50: > 100 µM (inactive)
[35]
  GI50: > 100 µM (inactive)
[36]
  GI50: > 100 µM (inactive)
[37]
  GI50: > 100 µM (inactive)
[38]
  GI50: > 100 µM (inactive)
[39]
  GI50: 19.3 µM (inactive)
[40]
  GI50: > 100 µM (inactive)
[41]
  GI50: > 100 µM (inactive)
[42]
  GI50: > 100 µM (inactive)
[43]
  GI50: > 100 µM (inactive)
[44]
  GI50: > 100 µM (inactive)
[45]
  GI50: > 100 µM (inactive)
[46]
  GI50: > 100 µM (inactive)
[47]
  GI50: > 100 µM (inactive)
[48]
  GI50: > 100 µM (inactive)
[49]
  GI50: > 100 µM (inactive)
[50]
  GI50: > 100 µM (inactive)
[51]
  GI50: > 100 µM (inactive)
[52]
  GI50: > 100 µM (inactive)
[53]
  GI50: > 100 µM (inactive)
[54]
  GI50: > 100 µM
[55]
  GI50: > 100 µM (inactive)
[56]
  GI50: > 100 µM (inactive)

## [N-]=[N+]=NC1C2CC3C4CC5CC3[C@H](C2)C(C5)C41 (stereo not given in full)
[1]
  GI50: > 100 µM (inactive)
[2]
  GI50: > 100 µM (inactive)
[3]
  GI50: > 100 µM (inactive)
[4]
  GI50: > 100 µM (inactive)
[5]
  GI50: > 100 µM (inactive)
[6]
  GI50: > 100 µM (inactive)
[7]
  GI50: > 100 µM (inactive)
[8]
  GI50: > 100 µM (inactive)
[9]
  GI50: > 100 µM (inactive)
[10]
  GI50: > 100 µM (inactive)
[11]
  GI50: > 100 µM (inactive)
[12]
  GI50: > 100 µM (inactive)
[13]
  GI50: > 100 µM (inactive)
[14]
  GI50: > 100 µM (inactive)
[15]
  GI50: > 100 µM (inactive)
[16]
  GI50: > 100 µM (inactive)
[17]
  GI50: > 100 µM (inactive)
[18]
  GI50: > 100 µM (inactive)
[19]
  GI50: > 100 µM (inactive)
[20]
  GI50: > 100 µM (inactive)
[22]
  GI50: > 100 µM (inactive)
[23]
  GI50: > 100 µM (inactive)
[24]
  GI50: > 100 µM (inactive)
[25]
  GI50: > 100 µM (inactive)
[26]
  GI50: > 100 µM (inactive)
[27]
  GI50: > 100 µM (inactive)
[28]
  GI50: > 100 µM (inactive)
[29]
  GI50: > 100 µM (inactive)
[30]
  GI50: > 100 µM (inactive)
[57]
  GI50: > 100 µM (inactive)
[31]
  GI50: > 100 µM (inactive)
[32]
  GI50: > 100 µM (inactive)
[33]
  GI50: > 100 µM (inactive)
[34]
  GI50: > 100 µM (inactive)
[35]
  GI50: > 100 µM (inactive)
[36]
  GI50: > 100 µM (inactive)
[37]
  GI50: > 100 µM (inactive)
[38]
  GI50: > 100 µM (inactive)
[39]
  GI50: 75.3 µM (inactive)
[40]
  GI50: > 100 µM (inactive)
[41]
  GI50: > 100 µM (inactive)
[42]
  GI50: > 100 µM (inactive)
[43]
  GI50: > 100 µM (inactive)
[44]
  GI50: > 100 µM (inactive)
[47]
  GI50: > 100 µM (inactive)
[58]
  GI50: 17.1 µM (inactive)
[48]
  GI50: > 100 µM (inactive)
[49]
  GI50: > 100 µM (inactive)
[50]
  GI50: > 100 µM (inactive)
[51]
  GI50: > 100 µM (inactive)
[52]
  GI50: > 100 µM (inactive)
[53]
  GI50: > 100 µM (inactive)
[55]
  GI50: > 100 µM (inactive)
[56]
  GI50: > 100 µM (inactive)

Source: ChEMBL document CHEMBL1201862, “PubChem BioAssay data set” (2004)
